Data reported in patent publication US10294202B2, “Pyrrolidinones as herbicides” (FMC Corporation, priority 2013, dated 2019).

Legend:
ducksalad = assay: Test B flooded paddy test; format: in vivo, Heteranthera limosa; conditions: 500 g ai/ha, Flood; scale of 0 to 100 where 0 is no effect and 100 is complete control
Summary of the method: (§1)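 Scoring: visual, compared with untreated controls, 0 = no effect through 100 = complete control, taken 13 to 15 days after treatment in the greenhouse. Compounds had been added to paddy water over soil flooded 3 cm deep at the plants' 2-leaf stage.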

galium = assay: Test A postemergence herbicide test; format: in vivo, Galium aparine
Summary of the method: (§2)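 Plants at the one- to two-leaf stage, 2–10 cm tall, grown in loam/sand pots, received postemergence sprays of the test chemicals. After about 10 days in the greenhouse, injury was scored visually against untreated controls on a 0–100 scale (0 none, 100 complete control).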

corn = assay: Test A pre-/postemergence herbicide test; format: in vivo, Zea mays; conditions: Postemergence
Summary of the method: (§3)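 Directed soil spray to seeded pots (preemergence) or spray onto one- to two-leaf seedlings 2–10 cm tall (postemergence); loam/sand substrate throughout. Evaluated visually after about 10 days against untreated plants, 0 = no effect, 100 = complete control.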

pigweed = assay: Test A pre-/postemergence herbicide test; format: in vivo, Amaranthus retroflexus
Summary of the method: as §3

kochia = assay: Test A pre-/postemergence herbicide test; format: in vivo, Kochia scoparia
Summary of the method: as §3

blackgrass = assay: Test A postemergence herbicide test; format: in vivo, Alopecurus myosuroides
Summary of the method: as §2

barnyardgrass [1] = assay: Test B flooded paddy test; format: in vivo, Echinochloa crus-galli; conditions: 500 g ai/ha, Flood; scale of 0 to 100 where 0 is no effect and 100 is complete control
Summary of the method: as §1

rice = assay: Test B flooded paddy test; format: in vivo, Oryza sativa; conditions: 500 g ai/ha, Flood; scale of 0 to 100 where 0 is no effect and 100 is complete control
Summary of the method: as §1

wheat = assay: Test A pre-/postemergence herbicide test; format: in vivo, Triticum aestivum; conditions: Postemergence
Summary of the method: as §3

ryegrass, Italian = assay: Test A pre-/postemergence herbicide test; format: in vivo, Lolium multiflorum
Summary of the method: as §3

giant foxtail = assay: Test A pre-/postemergence herbicide test; format: in vivo, Setaria faberii
Summary of the method: as §3

ragweed = assay: Test A pre-/postemergence herbicide test; format: in vivo, Ambrosia elatior
Summary of the method: as §3

sedge, umbrella = assay: Test B flooded paddy test; format: in vivo, Cyperus difformis; conditions: 500 g ai/ha, Flood; scale of 0 to 100 where 0 is no effect and 100 is complete control
Summary of the method: as §1

barnyardgrass [2] = assay: Test A pre-/postemergence herbicide test; format: in vivo, Echinochloa crus-galli
Summary of the method: as §3

[3] = 125 g ai/ha, 0 to 100 scale, 0 is no effect, 100 is complete control
[4] = 125 g ai/ha, visual rating, 0 to 100 scale, 0 no effect, 100 complete control, approximately 10 days, preemergence
[5] = Postemergence, 125 g ai/ha, 0 to 100 scale, 0 is no effect, 100 is complete control
[6] = preemergence, 500 g ai/ha, 0 to 100 scale, 0 is no effect and 100 is complete control
[7] = 125 g ai/ha, visual rating on 0 to 100 scale (0 no effect, 100 complete control), approx. 10 days
[8] = 500 g ai/ha, 0 to 100 scale (0 no effect, 100 complete control)
[9] = Postemergence, 125 g ai/ha, visual rating on 0 to 100 scale (0 no effect, 100 complete control), approx. 10 days
[10] = Postemergence, 500 g ai/ha, 0 to 100 scale (0 no effect, 100 complete control)
[11] = Preemergence, 125 g ai/ha, 0 to 100 scale where 0 is no effect and 100 is complete control
[12] = Preemergence, 500 g ai/ha, visual rating on 0 to 100 scale (0 no effect, 100 complete control)

CCc1cccc(C2CNC(=O)C2C(=O)Nc2cccc(F)c2F)c1 (racemic) [Compound 170]
80: Plant response rating, Foxtail, Giant (giant foxtail; [4])
20: Plant response rating, Corn (corn; [3]) | Plant response rating, Pigweed (pigweed; [5]) | Plant response rating, Kochia (kochia; [5]) | Plant response rating, Ryegrass, Italian (ryegrass, Italian; [5]) | Plant response rating, Ragweed (ragweed; [5])
60: Plant response rating, Galium (galium; [3]) | Galium plant response rating (0 to 100 scale, 0 is no effect, 100 is complete control) (galium; 500 g ai/ha) | Blackgrass plant response rating (0 to 100 scale, 0 is no effect, 100 is complete control) (blackgrass; 500 g ai/ha) | Wheat plant response rating (0 to 100 scale, 0 is no effect, 100 is complete control) (wheat; 500 g ai/ha) | Ryegrass, Italian plant response rating (0 to 100 scale, 0 is no effect, 100 is complete control) (ryegrass, Italian; Postemergence, 500 g ai/ha) | Plant response rating, Foxtail, Giant (giant foxtail; [5]) | Plant response rating, Ragweed (ragweed; [6])
85: Plant response rating, Barnyardgrass (barnyardgrass [1])
0: Plant response rating, Wheat (wheat; [3]) | Plant response rating, Ryegrass, Italian (ryegrass, Italian; [4]) | Plant response rating, Ragweed (ragweed; [4]) | Plant response rating, Sedge, Umbrella (sedge, umbrella)
90: Foxtail, Giant plant response rating (0 to 100 scale, 0 is no effect, 100 is complete control) (giant foxtail; Postemergence, 500 g ai/ha) | Plant response rating, Foxtail, Giant (giant foxtail; preemergence, 500 g ai/ha, 0 to 100 scale) | Plant response rating, Barnyardgrass (barnyardgrass [2]; [4]) | Plant response rating, Barnyardgrass (barnyardgrass [2]; [5]) | Barnyardgrass plant response rating (0 to 100 scale, 0 is no effect, 100 is complete control) (barnyardgrass [2]; Postemergence, 500 g ai/ha) | Plant response rating, Barnyardgrass (barnyardgrass [2]; preemergence, 500 g ai/ha, 0 to 100 scale (0 no effect, 100 complete control))
50: Plant response rating, Pigweed (pigweed; [4]) | Plant response rating, Pigweed (pigweed; [6]) | Plant response rating, Kochia (kochia; [4]) | Kochia plant response rating (0 to 100 scale, 0 is no effect, 100 is complete control) (kochia; Postemergence, 500 g ai/ha) | Plant response rating, Blackgrass (blackgrass; [3]) | Plant response rating, Ryegrass, Italian (ryegrass, Italian; [6]) | Ragweed plant response rating (0 to 100 scale, 0 is no effect, 100 is complete control) (ragweed; Postemergence, 500 g ai/ha)
15: Plant response rating, Rice (rice)
70: Corn plant response rating (0 to 100 scale, 0 is no effect, 100 is complete control) (corn; 500 g ai/ha) | Plant response rating, Kochia (kochia; [6])
30: Pigweed plant response rating (0 to 100 scale, 0 is no effect, 100 is complete control) (pigweed; Postemergence, 500 g ai/ha)
100: Plant response rating, Ducksalad (ducksalad)

CC1(c2ccccc2)CNC(=O)C1C(=O)Nc1ccccc1F (stereo not drawn) [Compound 301]
0: Plant response rating, Ducksalad (ducksalad) | Plant response rating, Galium (galium; [7]) | Plant response rating, Galium (galium; [8]) | Plant response rating, Corn (corn; [7]) | Plant response rating, Corn (corn; [8]) | Plant response rating, Pigweed (pigweed; [9]) | Plant response rating, Pigweed (pigweed; [10]) | Plant response rating, Pigweed (pigweed; [11]) | Pigweed plant response rating (pigweed; [12]) | Plant response rating, Kochia (kochia; [9]) | Plant response rating, Kochia (kochia; [10]) | Plant response rating, Kochia (kochia; [11]) | Kochia plant response rating (kochia; [12]) | Plant response rating, Blackgrass (blackgrass; [7]) | Plant response rating, Blackgrass (blackgrass; [8]) | Plant response rating, Barnyardgrass (barnyardgrass [1]) | Plant response rating, Rice (rice) | Plant response rating, Wheat (wheat; [7]) | Plant response rating, Wheat (wheat; [8]) | Plant response rating, Ryegrass, Italian (ryegrass, Italian; [9]) | Plant response rating, Ryegrass, Italian (ryegrass, Italian; [10]) | Plant response rating, Ryegrass, Italian (ryegrass, Italian; [11]) | Ryegrass, Italian plant response rating (ryegrass, Italian; [12]) | Plant response rating, Foxtail, Giant (giant foxtail; [9]) | Plant response rating, Foxtail, Giant (giant foxtail; [10]) | Plant response rating, Foxtail, Giant (giant foxtail; [11]) | Foxtail, Giant plant response rating (giant foxtail; [12]) | Plant response rating, Ragweed (ragweed; [9]) | Plant response rating, Ragweed (ragweed; [10]) | Plant response rating, Ragweed (ragweed; [11]) | Ragweed plant response rating (ragweed; [12]) | Plant response rating, Sedge, Umbrella (sedge, umbrella) | Plant response rating, Barnyardgrass (barnyardgrass [2]; [9]) | Plant response rating, Barnyardgrass (barnyardgrass [2]; [10]) | Plant response rating, Barnyardgrass (barnyardgrass [2]; [11]) | Barnyardgrass plant response rating (barnyardgrass [2]; [12])
